Source: patent US11884671B2, “Purinone compounds and their use in treating cancer” (ASTRAZENECA AB, priority 2018, dated 2024)

Legend:
[1] = target: JAK1 (Homo sapiens (Human), UniProt P23458); test: JAK1 enzyme assay (Z'-LYTE); type: biochemical; conditions: 75 μM ATP, arithmetic mean of two or more experiments; for IC50: read-out: JAK1 enz pIC50 (converted)
Experimental: (§1) The inhibitory activity of compounds against AURKA, AURKB, JAK1, JAK2 and JAK3 was determined in Z′-LYTE® assays run by ThermoFisher Scientific as part of their SelectScreen® Biochemical Kinase Profiling Service. The Z′-LYTE® biochemical assay format employs a fluorescence-based, coupled-enzyme format and is based on the differential sensitivity of phosphorylated and non-phosphorylated peptides to proteolytic cleavage. The peptide substrate is labeled with two fluorophores—one at each end—that make up a FRET pair. In the primary reaction, the kinase transfers the gamma-phosphate of ATP to a single tyrosine, serine or threonine residue in a synthetic FRET-peptide. In the secondary reaction, a site-specific protease recognises and cleaves non-phosphorylated FRET-peptides. Phosphorylation of FRET-peptides suppresses cleavage by the Development Reagent. Cleavage disrupts FRET between the donor (i.e., coumarin) and acceptor (i.e., fluorescein) fluorophores on the FRET-peptide, whereas uncleaved, phosphorylated FRET-peptides maintain FRET. A ratiometric method, which calculates the ratio (the Emission Ratio) of donor emission to acceptor emission after excitation of the donor fluorophore at 400 nm, is used to quantitate reaction progress. Both cleaved and uncleaved FRET-peptides contribute to the fluorescence signals and therefore to the Emission Ratio. The extent of phosphorylation of the FRET-peptide can be calculated from the Emission Ratio.
(§2) 10 point three-fold dilution compound concentration-response curves, with a top concentration of 10 μM were generated from 10 mM stocks of compound solubilised in DMSO. All assays were performed in black, non-binding, low volume Corning 384-well plates (cat. #4514, Corning), in a total reaction volume of 10 μL and 1% (v/v) final DMSO concentration. […] The kinase reaction was then quenched by the addition of 5 μL of Development Reagent (ThermoFisher Scientific proprietary). […] IC50 values were calculated using XLfit software (IDBS Ltd, Surrey, UK), with the curve fit to model number 205 (sigmoidal dose-response model).
JAK1: The 2×JAK/Tyr 06 (ThermoFisher Scientific proprietary) mixture was prepared in 50 mM HEPES pH 6.5, 0.01% BRIJ-35, 10 mM MgCl2, 1 mM EGTA, 0.02% NaN3. […] After the 1 hour Kinase Reaction incubation, 5 μL of a 1:128 dilution of Development Reagent was added.

[2] = target: DNAPK (Homo sapiens (Human), UniProt P78527); test: DNAPK cellular potency assay (DNA-PK cell), pS2056-DNAPK ELISA in irradiated A549 cells; type: cell-based; conditions: 8 Gy radiation, arithmetic mean of two or more experiments, read-out: DNA-PK cell pIC50 (converted)
Experimental: The DNAPK cell ELISA assay was performed in the A549 cell line. A549 cells were cultured in cell media composed of MEM-F12 (Minimum Essential Medium F12 Sigma #D6421), 10% (v/v) Foetal Calf Serum and 1% (v/v) 200 mM L-Glutamine. […] The following day the Greiner ELISA plates were washed 3× with PBS-T and blocked with 3% BSA/PBS for 2 h, before a further 3× wash with PBS-T.
The cell plates were then incubated for 1 h at 37° C. before receiving a radiation dose of 8 Gy (XRAD 320, table height 65). The cells were incubated for a further 1 h before removal of cell media. […] Cell lysates ([…]) were transferred to the DNAPK antibody-coated ELISA plates using a CyBio Felix liquid handling platform, and ELISA plates were incubated at 4° C. overnight.
The following day, ELISA plates were washed 3× with PBS-T and dispensed with in-house pS2056-DNAPK antibody (0.5 μg/mL in 3% BSA/PBS) at 20 ul/well.
The fluorescence intensity of individual wells was determined using a PerkinElmer EnVision plate reader.
(§3) Data was analysed and IC50 values were calculated using Genedata Screener® software (Genedata, Inc., Basel, Switzerland).

[3] = target: JAK2 (Homo sapiens (Human), UniProt O60674); test: JAK2 enzyme assay (Z'-LYTE); type: biochemical; conditions: 25 μM ATP, arithmetic mean of two or more experiments; for IC50: read-out: JAK2 enz pIC50 (converted)
Experimental: as §1, §2
JAK2: The 2×JAK2/Tyr 06 (ThermoFisher Scientific proprietary) mixture was prepared in 50 mM HEPES pH 7.5, 0.01% BRIJ-35, 10 mM MgCl2, 1 mM EGTA. […] After the 1 hour Kinase Reaction incubation, 5 μL of a 1:128 dilution of Development Reagent was added.

[4] = target: Full length human DNAPK protein (Homo sapiens (Human), UniProt P78527); test: DNAPK enzyme potency assay (DNA-PK enz), TR-FRET; type: biochemical; conditions: arithmetic mean of two or more experiments, 18 μM ATP; for IC50: read-out: DNA-PK enz pIC50 (converted)
Description: The following assays were used to measure the effects of the compounds described herein: a) DNAPK enzyme potency assay; b) DNAPK cellular potency assay. During the description of the assays, generally: • i. The following abbreviations have been used; DMSO=Dimethyl Sulphoxide; DTT=Dithiothreitol; EDTA=Ethylenediaminetetraacetic Acid, TR-FRET=Time Resolved Fluorescence Resonance Energy Transfer, ATP=Adenosine triphosphate, DTT=Dithiothreitol, DNA=Deoxyribonucleic acid, HEPES=(2-hydroxyethyl)-1-piperazineethanesulfonic acid • ii. […] Assay a): DNAPK Enzyme Potency Assay (DNA-PK Enz)
The inhibitory activity of compounds against DNAPK was determined by TR-FRET measuring a fluorescent labelled peptide substrate converting to a phosphorylated product. Fluorescently tagged peptide substrate were purchased from Thermo Fisher Scientific. 12 point half-log compound concentration-response curves, with a top concentration of 100 μM were generated from 10 mM stocks of compound solubilised in DMSO using an Echo 555 (Labcyte Inc., Sunnyvale, CA). All assays were preformed in white Greiner 1536 well low volume plates (Greiner Bio-One, UK), in a total reaction volume of 3 μL and 1% (v/v) final DMSO concentration. Enzymes and substrates were added separately to the compound plates and incubated at room temperature. The kinase reaction was then quenched by the addition of 3 μL of stop buffer. Stopped assay plates were read using a BMG Pherastar. IC50 values were calculated using a Genedata Screener® software (Genedata, Inc., Basel, Switzerland).
Full length human DNAPK protein was purified from HeLa cell extract by ion exchange. Initially DNAPK protein was incubated with compound for 30 minutes at room temperature in reaction buffer (50 mM Hepes pH 7.5, 0.01% Brij-35, 10 mM MgCl2, 1 mM EGTA, 1 mM DTT, […] Calf Thymus DNA). The reaction was then initiated by the addition of ATP and fluorescently tagged peptide substrate (Fluorescein-[…], Thermo Fisher Scientific). […] The reaction was incubated for a further hour and the plates were read on a BMG Pherastar.
as §3

[5] = target: AURKB (Aurora B) (Homo sapiens (Human), UniProt Q96GD4); test: Aurora-B enzyme assay (Z'-LYTE); type: biochemical; conditions: 75 μM ATP, arithmetic mean of two or more experiments; for IC50: read-out: AurB enz pIC50 (converted)
Experimental: as §1, §2
Aurora B (AurB): The 2×AURKB (Aurora B)/Ser/Thr 01 (ThermoFisher Scientific proprietary) mixture was prepared in 50 mM HEPES pH 7.5, 0.01% BRIJ-35, 10 mM MgCl2, 1 mM EGTA. […] After the 1 hour Kinase Reaction incubation, 5 μL of a 1:4096 dilution of Development Reagent was added.

AURKB (Aurora B), sequence (Q96GD4 whole entry): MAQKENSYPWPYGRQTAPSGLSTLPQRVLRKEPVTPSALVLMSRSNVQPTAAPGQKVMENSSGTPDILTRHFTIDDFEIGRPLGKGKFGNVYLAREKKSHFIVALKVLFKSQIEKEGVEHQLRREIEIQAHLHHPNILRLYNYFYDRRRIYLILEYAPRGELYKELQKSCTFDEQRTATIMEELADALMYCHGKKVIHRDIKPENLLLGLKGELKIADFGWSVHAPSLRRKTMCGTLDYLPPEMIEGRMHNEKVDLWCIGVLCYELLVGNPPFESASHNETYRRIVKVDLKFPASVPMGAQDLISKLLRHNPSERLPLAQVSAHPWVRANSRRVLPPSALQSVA
JAK2, sequence (O60674 whole entry): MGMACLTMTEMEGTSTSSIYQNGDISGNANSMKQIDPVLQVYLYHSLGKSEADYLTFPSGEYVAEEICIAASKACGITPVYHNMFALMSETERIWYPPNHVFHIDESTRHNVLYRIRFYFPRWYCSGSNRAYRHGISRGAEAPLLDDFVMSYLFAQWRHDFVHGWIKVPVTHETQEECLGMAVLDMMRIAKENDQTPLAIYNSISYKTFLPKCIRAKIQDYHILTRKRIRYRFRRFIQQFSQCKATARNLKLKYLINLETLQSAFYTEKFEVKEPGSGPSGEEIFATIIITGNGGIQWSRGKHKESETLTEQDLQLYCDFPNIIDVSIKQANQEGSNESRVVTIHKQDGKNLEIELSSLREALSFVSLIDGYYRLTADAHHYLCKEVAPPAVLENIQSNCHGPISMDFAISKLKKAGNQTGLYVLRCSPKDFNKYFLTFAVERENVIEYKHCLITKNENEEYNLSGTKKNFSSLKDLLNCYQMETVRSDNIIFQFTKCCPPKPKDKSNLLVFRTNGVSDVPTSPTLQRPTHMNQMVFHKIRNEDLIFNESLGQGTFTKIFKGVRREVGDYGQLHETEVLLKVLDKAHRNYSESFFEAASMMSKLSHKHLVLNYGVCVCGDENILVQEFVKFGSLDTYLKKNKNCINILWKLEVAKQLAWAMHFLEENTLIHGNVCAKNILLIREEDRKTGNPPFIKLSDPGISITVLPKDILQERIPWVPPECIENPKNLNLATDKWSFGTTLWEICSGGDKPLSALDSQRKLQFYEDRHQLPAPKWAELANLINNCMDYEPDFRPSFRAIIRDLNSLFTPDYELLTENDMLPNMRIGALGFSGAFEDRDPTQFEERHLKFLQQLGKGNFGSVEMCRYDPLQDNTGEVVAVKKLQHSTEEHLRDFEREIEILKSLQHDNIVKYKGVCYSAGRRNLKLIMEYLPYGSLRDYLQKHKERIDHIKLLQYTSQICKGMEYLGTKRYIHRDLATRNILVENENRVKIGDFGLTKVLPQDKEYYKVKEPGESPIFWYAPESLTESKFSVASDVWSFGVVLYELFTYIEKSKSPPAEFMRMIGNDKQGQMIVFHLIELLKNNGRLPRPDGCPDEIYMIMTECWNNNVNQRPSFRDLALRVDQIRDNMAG
JAK1, sequence (P23458 whole entry): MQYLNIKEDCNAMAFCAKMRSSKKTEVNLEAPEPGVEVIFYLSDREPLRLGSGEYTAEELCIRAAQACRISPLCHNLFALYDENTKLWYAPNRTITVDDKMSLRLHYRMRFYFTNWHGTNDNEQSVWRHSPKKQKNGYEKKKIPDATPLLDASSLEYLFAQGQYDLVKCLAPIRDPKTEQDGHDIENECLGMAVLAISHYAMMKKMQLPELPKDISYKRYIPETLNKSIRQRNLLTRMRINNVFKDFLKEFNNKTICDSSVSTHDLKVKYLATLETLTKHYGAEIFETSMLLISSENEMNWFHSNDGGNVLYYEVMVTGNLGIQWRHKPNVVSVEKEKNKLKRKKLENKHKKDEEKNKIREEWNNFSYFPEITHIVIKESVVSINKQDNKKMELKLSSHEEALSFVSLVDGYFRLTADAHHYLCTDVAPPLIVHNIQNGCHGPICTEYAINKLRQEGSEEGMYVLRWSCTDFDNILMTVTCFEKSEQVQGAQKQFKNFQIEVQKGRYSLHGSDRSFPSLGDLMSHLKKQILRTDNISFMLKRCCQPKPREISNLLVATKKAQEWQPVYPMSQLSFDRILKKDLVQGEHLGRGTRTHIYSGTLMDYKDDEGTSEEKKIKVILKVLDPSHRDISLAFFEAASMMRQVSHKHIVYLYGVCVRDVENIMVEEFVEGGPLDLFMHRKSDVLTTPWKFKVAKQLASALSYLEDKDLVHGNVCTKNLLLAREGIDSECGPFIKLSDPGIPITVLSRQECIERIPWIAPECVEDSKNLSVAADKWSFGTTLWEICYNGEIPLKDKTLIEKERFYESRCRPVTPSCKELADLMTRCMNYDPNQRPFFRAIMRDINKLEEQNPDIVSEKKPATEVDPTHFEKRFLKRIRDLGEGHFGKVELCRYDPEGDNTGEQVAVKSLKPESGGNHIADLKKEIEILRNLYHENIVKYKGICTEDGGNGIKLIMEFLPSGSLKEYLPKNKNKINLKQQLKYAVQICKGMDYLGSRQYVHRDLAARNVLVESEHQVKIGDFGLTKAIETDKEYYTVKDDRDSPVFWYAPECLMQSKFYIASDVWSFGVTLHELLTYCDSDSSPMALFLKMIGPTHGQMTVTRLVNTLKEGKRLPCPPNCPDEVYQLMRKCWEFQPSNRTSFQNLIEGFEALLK

Row | Compound | JAK1 enz pIC50 [1] | IC50 [2] [nM] | JAK2 enz pIC50 [3] | DNA-PK enz pIC50 [4] | AurB enz pIC50 [5] | IC50 [1] [nM] | IC50 [3] [nM] | IC50 [4] [nM] | IC50 [5] [nM]
1 | Cc1cc2ncccc2cc1Nc1ncc2c(n1)n([C@H]1CC[C@H](O)CC1)c(=O)n2C [Example 6, 9-((1r,4r)-4-hydroxycyclohexyl)-7-methyl-2-((7-methylquinolin-6-yl)amino)-7,9-dihydro-8H-purin-8-one] | <5 | 5.01 | <5 | >10 | <5 | – | – | – | –
2 | Cc1cc2nccc(C)c2cc1Nc1ncc2c(n1)n([C@H]1CC[C@H](O)CC1)c(=O)n2C [Example 8, 2-((4,7-dimethylquinolin-6-yl)amino)-9-((1r,4r)-4-hydroxycyclohexyl)-7-methyl-7,9-dihydro-8H-purin-8-one] | – | 10 | – | – | – | > 10000 | > 10000 | < 0.1 | > 10000
3 | Cc1cc2nccnc2cc1Nc1ncc2c(n1)n([C@H]1CC[C@H](O)CC1)c(=O)n2C [Example 10, 9-((1r,4r)-4-hydroxycyclohexyl)-7-methyl-2-((7-methylquinoxalin-6-yl)amino)-7,9-dihydro-8H-purin-8-one] | – | 10 | – | – | – | > 10000 | > 10000 | < 0.1 | > 10000
4 | CC(=O)N1CCC(n2c(=O)n(C)c3cnc(Nc4cc5nccnc5cc4C)nc32)CC1 [Example 2, 9-(1-acetylpiperidin-4-yl)-7-methyl-2-((7-methylquinoxalin-6-yl)amino)-7,9-dihydro-8H-purin-8-one] | <5 | 50.1 | <5 | 9.8 | <5 | – | – | – | –
5 | Cc1cc2nnccc2cc1Nc1ncc2c(n1)n([C@H]1CCCOC1)c(=O)n2C [Example 27, (S)-7-methyl-2-((7-methylcinnolin-6-yl)amino)-9-(tetrahydro-2H-pyran-3-yl)-7,9-dihydro-8H-purin-8-one] | <5 | 12.6 | <5 | >10 | <5 | – | – | – | –
6 | Cc1cc2nnccc2cc1Nc1ncc2c(n1)n([C@H]1CC[C@@H](O)CC1)c(=O)n2C [Example 12, 9-((1s,4s)-4-hydroxycyclohexyl)-7-methyl-2-((7-methylcinnolin-6-yl)amino)-7,9-dihydro-8H-purin-8-one] | <5 | 20 | <5 | >10 | <5 | – | – | – | –
7 | Cc1cc2nccnc2cc1Nc1ncc2c(n1)n([C@H]1CC[C@](C)(O)CC1)c(=O)n2C [Example 18, 9-((1r,4r)-4-hydroxy-4-methylcyclohexyl)-7-methyl-2-((7-methylquinoxalin-6-yl)amino)-7,9-dihydro-8H-purin-8-one] | – | 50.1 | – | – | – | > 10000 | > 10000 | 0.251 | > 10000
8 | CC(=O)N1CCC(n2c(=O)n(C)c3cnc(Nc4cc5ncc(C)nc5cc4C)nc32)CC1 [Example 4, 9-(1-acetylpiperidin-4-yl)-2-((2,7-dimethylquinoxalin-6-yl)amino)-7-methyl-7,9-dihydro-8H-purin-8-one] | <5 | 251 | <5 | 9.0 | <5 | – | – | – | –
9 | Cc1cc2ncccc2cc1Nc1ncc2c(n1)n([C@@H]1CCN(C)C[C@@H]1F)c(=O)n2C [Example 46, 9-((3S,4R)-3-fluoro-1-methylpiperidin-4-yl)-7-methyl-2-((7-methylquinolin-6-yl)amino)-7,9-dihydro-8H-purin-8-one] | <5 | 631 | <5 | 8.1 | <5 | – | – | – | –
10 | Cc1cc2ncccc2cc1Nc1ncc2c(n1)n([C@H]1CC[C@](C)(N)CC1)c(=O)n2C [Example 40, 9-((1r,4r)-4-amino-4-methylcyclohexyl)-7-methyl-2-((7-methylquinolin-6-yl)amino)-7,9-dihydro-8H-purin-8-one] | – | 158 | – | – | – | > 10000 | > 10000 | 0.316 | > 10000
11 | Cc1cc2nccnc2cc1Nc1ncc2c(n1)n([C@@H]1CCOC1)c(=O)n2C [Example 24, (R)-7-methyl-2-((7-methylquinoxalin-6-yl)amino)-9-(tetrahydrofuran-3-yl)-7,9-dihydro-8H-purin-8-one] | <5 | 79.4 | <5 | 9.1 | <5 | – | – | – | –
12 | Cc1cc2nccnc2cc1Nc1ncc2c(n1)n([C@@H]1CCCOC1)c(=O)n2C [Example 26, (R)-7-methyl-2-((7-methylquinoxalin-6-yl)amino)-9-(tetrahydro-2H-pyran-3-yl)-7,9-dihydro-8H-purin-8-one] | <5 | 39.8 | <5 | 9.8 | <5 | – | – | – | –
